Results: patent US20210046125A1, “DECELLULARIZED TISSUES, HYDROGELS THEREOF, AND USES THEREOF” (UNIVERSITY OF FLORIDA RESEARCH FOUNDATION, priority 2018, published 2021)

Tests used:
peripheral nerve tissue [1] = assay: Induction of apoptosis ex vivo (active caspase 3 immunochemistry, TUNEL); parameters: species or system Sprague Dawley rats; conditions: 10 μM camptothecin, 37° C., 2 days
Procedure: Peripheral nerves were harvested from Sprague Dawley rats and decellularized according to an apoptosis-assisted protocol using 10 μM camptothecin in non-supplemented media at 37° C. for 2 days. Tissue in media without camptothecin was used as a control. Apoptotic agent treatment was succeeded by washes in saline buffered solutions to optimize cell removal. The degree of apoptosis, cellular removal, and matrix preservation was assessed using immunochemistry on nerve tissue sections and fluorescence imaging. Antibodies used to identify apoptosis, cell removal, and tissue preservation include those against active caspase 3 (Abcam); neurofilament (RT-97, DSHB) and 5100 (Dako); and laminin (Sigma), respectively, Apoptosis-mediated DNA fragmentation was assessed using a terminal deoxynucleotidyl transferase dUTP nick end labeling (TUNEL) assay. Total DNA content was quantified using a Picogreen DNA assay (Life Technologies) according to manufacturer's instructions. […] For FIGS. 5A and 5B, the images are fresh nerve (top half) and apoptosis decellularized nerve (bottom half). FIG. 5A was labeled for neurons (neurofilament, green), Schwann cells (S100, red), and nuclei (DAPI, blue). […] Induction of apoptosis was confirmed in treated nerve tissue by an increase in active caspase 3, an early mediator of apoptosis. […]

rat sciatic nerve [2] = assay: QuantiFluor dsDNA assay, residual DNA content in tissue; conditions: apoptosis decellularization, QuantiFluor dsDNA kit
Source text: (§1) Briefly, the injectable tissue hydrogels of this Example were generated by digesting rat sciatic nerves that had been decellularized by inducing cell […] (or apoptosis). Apoptosis can cause cells to form small apoptotic bodies containing cellular components, which can be more easily removed from the matrix. This approach has the potential to enhance matrix preservation and bioactivity, thus having a major impact on tissue engineering. In this Example, rat sciatic nerves were first harvested and decellularized by inducing apoptosis (described elsewhere herein and e,g. FIG. 11). Washing in camptothecin can induce apoptosis. Hypertonic washing (e,g. 4× PBS) can aid in cell removal. DNase treatment can degrade residual DNA content. Treatment with Chondroitinase ABC can be used to remove inhibitory proteoglycans. After the decellularization process, the resulting decellularized tissue can undergo enzymatic processing and further processing to balance pH where necessary. In some cases the decellularized tissue can be lyophilized prior to enzymatic digestion. In this particular example, pepsin was used to digest tissue at an acidic pH. After about […] of enzymatic digestion, the solution can be neutralized and isotonically balanced. The solution was further diluted with PBS. In some embodiments, the solution was diluted to 1/9 th of its volume in 10× PBS. […]

peripheral nerve tissue [3] = assay: Picogreen DNA assay, total DNA content of apoptosis-decellularized peripheral nerve; parameters: species or system Sprague Dawley rats
Procedure: Peripheral nerves were harvested from Sprague Dawley rats and decellularized according to an apoptosis-assisted protocol using 5 μM camptothecin in non-supplemented media at 37° C. for 1 day. Tissue in media without camptothecin, an apoptotic agent, was used as a control. Apoptotic agent treatment was succeeded by washes in saline buffered solutions to optimize cell removal. Furthermore, the tissue was treated with 75 u/mL DNAse for 24 hours to ensure DNA removal. The degree of apoptosis, cellular removal, and matrix preservation was assessed using immunochemistry on nerve tissue sections and fluorescence imaging (FIG. 2). Antibodies used to identify apoptosis, cell removal, and tissue preservation include those against active caspase 3 (Abcam); neurofilament (RT-97, DSHB) and 5100 (Dako); and laminin (Sigma), respectively. […] FIGS. 2B and 2C show nerves treated with 5 μM for 1 day, washed with a hypertonic, and either washed with a […] or treated for 24 hours with DNAse, respectively. […] FIGS. 2E and 2F show treatment with higher camptothecin (10 μM), again for 1 day, and washed similarly to tissue in FIGS. 2B and 2C. These images depict 1) apoptosis induction is necessary prior to washing to effectively remove cellular components and 2) combing apoptosis induction with washes in non-isotonic solutions achieves cellular removal of peripheral nerve tissue. Total DNA content was quantified using a Picogreen DNA assay (Life Technologies) according to manufacturer's instructions.

rat sciatic nerve [4] = assay: TUNEL assay, preliminary studies; conditions: samples treated with camptothecin
Source text: as §1

Question: With `CC[C@@]1(O)C(=O)OCc2c1cc1n(c2=O)Cc2cc3ccccc3nc2-1` [camptothecin] as the compound, how does the “apoptosis ex vivo (caspase 3 activation and DNA fragmentation)” value (peripheral nerve tissue [1]) read?
Answer: The value was “sufficient to elicit aspects of apoptosis ex vivo”.

Question: And the DNA removal (rat sciatic nerve [2])?
Answer: Its DNA removal is “greater than 90%”.

Question: What about the “reduction in DNA compared to fresh nerve” value (peripheral nerve tissue [3]; 5 μM camptothecin 1 day, hypertonic then hypotonic wash) of the same compound?
Answer: Its value is 71.9%.

Question: What about the “reduction in DNA compared to fresh nerve” value (peripheral nerve tissue [3]; 5 μM camptothecin 1 day, hypotonic wash replaced with DNAse treatment) of the same compound?
Answer: The value was 95.1%.

Question: What about the “reduction in DNA compared to fresh nerve” value (peripheral nerve tissue [3]; 10 μM camptothecin 1 day, hypertonic then hypotonic wash) of the same compound?
Answer: The value was 57.3%.

Question: What about the “reduction in DNA compared to fresh nerve” value (peripheral nerve tissue [3]; 10 μM camptothecin 1 day, hypotonic wash replaced with DNAse treatment) of the same compound?
Answer: The value was 95.8%.

Question: What about the “apoptosis by TUNEL assay” value (rat sciatic nerve [4]) of the same compound?
Answer: The value was “enhanced apoptosis”.
